Data from ChEMBL document CHEMBL4680158, “C6-O-alkylated 7-deazainosine nucleoside analogues: Discovery of potent and selective anti-sleeping sickness agents” (Eur J Med Chem, 2020).

How the values were obtained:
[1] = system: Trypanosoma brucei brucei; assay: Antitrypanosomal activity against Trypanosoma brucei brucei assessed as reduction in parasite growth incubated for 3 days by resazurin dye based fluorescence assay; type: functional, organism-based; conditions: 72 h
[2] = system: Trypanosoma brucei rhodesiense; assay: Antitrypanosomal activity against Trypanosoma brucei rhodesiense assessed as reduction in parasite growth incubated for 3 days by resazurin dye based fluorescence assay; type: functional, organism-based; conditions: 72 h
[3] = system: MRC5; assay: Cytotoxicity against human MRC5 cells assessed as reduction in cell viability incubated for 3 days by resazurin dye based fluorescence assay; conditions: MRC5, 72 h
[4] = Selectivity index, ratio of EC50 for cytotoxicity against human MRC5 cells to EC50 for antitrypanosomal activity against Trypanosoma brucei brucei; type: toxicity, cell-based; conditions: read-out: Ratio EC50
[5] = Selectivity index, ratio of EC50 for cytotoxicity against human MRC5 cells to EC50 for antitrypanosomal activity against Trypanosoma brucei rhodesiense; type: toxicity, cell-based; conditions: read-out: Ratio EC50
[6] = Resistance factor, ratio of EC50 for antitrypanosomal activity against drug resistant Trypanosoma brucei harboring TbAT1 deficient to antitrypanosomal activity against Trypanosoma brucei brucei Lister 427 blood stream form; type: functional
[7] = Resistance factor, ratio of EC50 for antitrypanosomal activity against drug resistant Trypanosoma brucei B48 to antitrypanosomal activity against Trypanosoma brucei brucei Lister 427 blood stream form; type: functional
[8] = Resistance factor, ratio of EC50 for antitrypanosomal activity against drug resistant Trypanosoma brucei ISMR1 to antitrypanosomal activity against Trypanosoma brucei brucei Lister 427 blood stream form; type: functional
[9] = system: Trypanosoma brucei brucei; assay: Antitrypanosomal activity against Trypanosoma brucei brucei Lister 427 blood stream forms assessed as reduction in parasite viability incubated for 48 hrs by resazurin dye based fluorescence assay; type: functional, organism-based; conditions: Lister 427, 48 h
[10] = system: Trypanosoma brucei; assay: Antitrypanosomal activity against drug resistant Trypanosoma brucei harboring TbAT1 deficient assessed as reduction in parasite viability incubated for 48 hrs by resazurin dye based fluorescence assay; type: functional, organism-based
[11] = system: Trypanosoma brucei; assay: Antitrypanosomal activity against drug resistant Trypanosoma brucei B48 assessed as reduction in parasite viability incubated for 48 hrs by resazurin dye based fluorescence assay; type: functional, organism-based; conditions: B48, 48 h
[12] = system: Trypanosoma brucei; assay: Antitrypanosomal activity against drug resistant Trypanosoma brucei ISMR1 assessed as reduction in parasite viability incubated for 48 hrs by resazurin dye based fluorescence assay; type: functional, organism-based; conditions: ISMR1, 48 h
[13] = Inhibition of Trypanosoma brucei P1 transporter assessed as reduction in [3H]-adenosine uptake measured after 60 sec by scintillation counting method
[14] = Inhibition of Trypanosoma brucei P2 transporter assessed as reduction in [3H]-adenosine uptake measured after 60 sec by scintillation counting method

EC50 [1] [nM]	EC50 [2] [nM]	SMILES	EC50 [3] [nM]	selectivity ratio [4]	selectivity ratio [5]	Ratio EC50 [6]	Ratio EC50 [7]	Ratio EC50 [8]	EC50 [9] [nM]	EC50 [10] [nM]	EC50 [11] [nM]	EC50 [12] [nM]	Ki [13] [nM]	Ki [14] [nM]
8100	23000	O=c1[nH]cnc2c1c(Br)cn2[C@@H]1O[C@H](CO)C[C@H]1O	> 64000	> 7	> 28									
32200	9400	O=c1[nH]cnc2c1c(-c1ccccc1)cn2[C@@H]1O[C@H](CO)[C@@H](O)[C@H]1O	> 64000	> 2	> 6.8									
		N=C(N)c1ccc(/N=N/Nc2ccc(C(=N)N)cc2)cc1				10.6	16.9	6.9						
2600	3700	COc1ncnc2c1c(Br)cn2[C@@H]1O[C@H](CO)C[C@H]1O	2700	1	0.7									
130	160	OC[C@H]1O[C@@H](n2cc(Cl)c3c(OCCOc4ccccc4)ncnc32)[C@H](O)[C@@H]1O	43200	329	263									
400	380	OC[C@H]1O[C@@H](n2cc(Cl)c3c(OC4CCCCC4)ncnc32)[C@H](O)[C@@H]1O	> 64000	> 161	> 168									
200	120	OC[C@H]1O[C@@H](n2cc(Cl)c3c(OC4CCCC4)ncnc32)[C@H](O)[C@@H]1O	38100	191	326									
170	220	COCCOc1ncnc2c1c(Cl)cn2[C@@H]1O[C@H](CO)[C@@H](O)[C@H]1O	4130	25	18.8									
58	29	CC(C)CCOc1ncnc2c1c(Cl)cn2[C@@H]1O[C@H](CO)[C@@H](O)[C@H]1O	> 64000	> 1100	> 2200									
490	180	Nc1nc(Cl)c2ccn([C@@H]3O[C@H](CO)[C@@H](O)[C@H]3O)c2n1	> 64000	> 131	> 347									
57300	23900	O=c1[nH]cnc2c1c(I)cn2[C@@H]1O[C@H](CO)[C@@H](O)[C@H]1O	> 64000	> 1.1	> 2.7									
> 64000	> 64000	Nc1ncc2ccn([C@@H]3O[C@H](CO)[C@@H](O)[C@H]3O)c2n1	> 64000											
88	32	CCCCCOc1ncnc2c1c(Cl)cn2[C@@H]1O[C@H](CO)[C@@H](O)[C@H]1O	100	1.1	3.2									
> 64000	> 64000	COc1ncnc2c1c(-c1ccccc1)cn2[C@@H]1O[C@H](CO)[C@@H](O)[C@H]1O	> 64000											
10700	25100	O=c1[nH]cnc2c1c(Cl)cn2[C@@H]1O[C@H](CO)[C@@H](O)[C@H]1O	> 64000	> 6	> 2.5									
4200	19100	O=c1[nH]cnc2c1ccn2[C@@H]1O[C@H](CO)[C@@H](O)[C@H]1O [IMMUNICILLIN H]	31300	7.4	1.6									
52400	29200	O=c1[nH]cnc2c1c(Br)cn2[C@@H]1O[C@H](CO)[C@@H](O)[C@H]1O	> 64000	> 1.2	22									
1100	6700	O=c1[nH]cnc2c1ncn2[C@@H]1O[C@H](CO)C[C@H]1O	> 64000											
> 64000	12900	Nc1nc2c(ccn2[C@@H]2O[C@H](CO)[C@@H](O)[C@H]2O)c(=O)[nH]1	> 64000		> 5									

EC50 [1] [nM]	EC50 [2] [nM]	SMILES	EC50 [3] [nM]	selectivity ratio [4]	selectivity ratio [5]	Ratio EC50 [6]	Ratio EC50 [7]	Ratio EC50 [8]	EC50 [9] [nM]	EC50 [10] [nM]	EC50 [11] [nM]	EC50 [12] [nM]	Ki [13] [nM]	Ki [14] [nM]
		N=C(N)c1ccc(OCCCCCOc2ccc(C(=N)N)cc2)cc1				1.8	94.6	13.8						
> 64000	4700	Cc1nc2c(ccn2[C@@H]2O[C@H](CO)[C@@H](O)[C@H]2O)c(=O)[nH]1	> 64000		> 13									
		CC[n+]1c(-c2ccccc2)c2cc(N/N=N/c3cccc(C(=N)N)c3)ccc2c2ccc(N)cc21				1.2	0.85	4.8						
81	76	CCCOc1ncnc2c1c(Cl)cn2[C@@H]1O[C@H](CO)[C@@H](O)[C@H]1O	2810	34	37									
71	30	CC(C)COc1ncnc2c1c(Cl)cn2[C@@H]1O[C@H](CO)[C@@H](O)[C@H]1O	49500	694	1670									
130	47	Nc1nc(Cl)c2c(Br)cn([C@@H]3O[C@H](CO)[C@@H](O)[C@H]3O)c2n1	40200	316	847									
69	36	CCCCOc1ncnc2c1c(Cl)cn2[C@@H]1O[C@H](CO)[C@@H](O)[C@H]1O	1320	19	37									
> 64000	22300	COc1ncnc2c1c(-c1ccc(Cl)cc1)cn2[C@@H]1O[C@H](CO)[C@@H](O)[C@H]1O	61100		2.7									
> 64000	10900	OC[C@H]1O[C@@H](n2cc(C(F)(F)F)c3c(O)ncnc32)[C@H](O)[C@@H]1O	3280	0.1	0.3									
29600	2900	O=c1[nH]cnc2c1ccn2[C@@H]1O[C@H](CO)C[C@H]1O	> 64000	> 2	> 22									
130	77	COc1nc(N)nc2c1c(Br)cn2[C@@H]1O[C@H](CO)[C@@H](O)[C@H]1O	3240	24	42									
2010	490	Nc1nc2c(c(Br)cn2[C@@H]2O[C@H](CO)[C@@H](O)[C@H]2O)c(=O)[nH]1	> 64000	> 31	> 130									
95	30	OC[C@H]1O[C@@H](n2cc(Cl)c3c(OCCc4ccccc4)ncnc32)[C@H](O)[C@@H]1O	310	3.3	10.3									
> 64000	> 64000	Nc1nc(O)c2ccn([C@@H]3O[C@H](CO)C[C@H]3O)c2n1	> 64000											
28	33	Cc1ccc(C(=O)Nc2ccc(S(=O)(=O)O)c3cc(S(=O)(=O)O)cc(S(=O)(=O)O)c23)cc1NC(=O)c1cccc(NC(=O)Nc2cccc(C(=O)Nc3cc(C(=O)Nc4ccc(S(=O)(=O)O)c5cc(S(=O)(=O)O)cc(S(=O)(=O)O)c45)ccc3C)c2)c1 [SURAMIN]												
100	1060	O=c1[nH]cnc2c1c(F)cn2[C@@H]1O[C@H](CO)[C@@H](O)[C@H]1O	2030	21	1.9									
220	53	COc1ncnc2c1c(I)cn2[C@@H]1O[C@H](CO)[C@@H](O)[C@H]1O	38400	168	708									
> 64000	> 64000	COc1ncnc2c1ccn2[C@@H]1O[C@H](CO)C[C@H]1O	> 64000											

SMILES	EC50 [1] [nM]	EC50 [2] [nM]	EC50 [3] [nM]	selectivity ratio [4]	selectivity ratio [5]	Ratio EC50 [6]	Ratio EC50 [7]	Ratio EC50 [8]	EC50 [9] [nM]	EC50 [10] [nM]	EC50 [11] [nM]	EC50 [12] [nM]	Ki [13] [nM]	Ki [14] [nM]
COc1ncnc2c1c(Br)cn2[C@@H]1O[C@H](CO)[C@@H](O)[C@H]1O	190	36	> 64000	> 336	> 1780	0.71	0.77	0.85	117	83	90	99		
CCOc1ncnc2c1c(Cl)cn2[C@@H]1O[C@H](CO)[C@@H](O)[C@H]1O	120	57	≥ 64000	> 275	> 578	1.43	1.7	2.45	79	113	134	194	99000	139000
CC(C)Oc1ncnc2c1c(Cl)cn2[C@@H]1O[C@H](CO)[C@@H](O)[C@H]1O	90	100	> 64000	> 711	> 640	1.08	1.02	1.47	184	198	188	270	284000	246000
